Measured values published in patent US10501493B2, “Broad spectrum antibiotics” (priority 2011, dated 2019).
Values after ≈ are worked out from the molar mass of the structure shown. Read-outs that look alike come from different tables or passages of the source.

Experiments:
[1] = tested on: E. coli ATCC 25922; experiment: In vitro antimicrobial activity, MIC by broth micro-dilution; format: cell-based; conditions: for MIC: Escherichia coli, ATCC25922, read-out: MIC class, E. coli ATCC 25922
Procedure: (§1) In vitro antimicrobial activity of each compound was determined by measuring minimal inhibitor concentrations (MICs) using the broth micro-dilution technique as approved by the Clinical and Laboratory Standards Institute (CLSI). The microbiological panel examined contains a number of bacterial species including E. coli MG1655, P. aeruginosa, S. aureus, and S. epidermidis. In addition, the panel includes previously described pseudo-isogenic strains of these four species (P. A. Smith et al. Chem Biol 2010, 1223-1231), in which a specific proline residue in SPase (called LepB in Gram-negative organisms an SpsB in Gram-positive organisms) has been mutated to a different amino acid. The resulting strains have increased susceptibility to the arylomycin class of antibiotics. Analysis of the strains lacking this proline residue will increases the dynamic range of the assay, and comparison of the sensitivities of the isogenic pairs provides ongoing confirmation that the activity gained through derivatization is specific to the inhibition of SPase. Briefly, bacterial streaks were grown on Mueller Hinton Agar II (Difco™) with or without 5% lysed horse blood for a period of 24 hours at either 35° C. or 28° C. Bacterial colonies were suspended in cation adjusted Mueller Hinton broth and diluted to a final concentration of 1*10^7 colony forming units/ml. Two-fold serial dilutions of each compound were arrayed into 96-well plates (100 μl final volume per well) and 5 ul of the bacterial suspension will be added. […] MICs were periodically checked plating serial dilutions of MIC wells and quantitatively determining viable colonies.

[2] = tested on: S. aureus NCTC-8325 SpsB(P295); experiment: as above; format: cell-based; conditions: for MIC: Staphylococcus aureus, NCTC8325, read-out: MIC class, S. aureus NCTC-8325 SpsB(P295)
Procedure: as §1

[3] = tested on: S. epidermidis RP62A; experiment: as above; format: cell-based; conditions: for MIC: Staphylococcus epidermidis, RP62A, read-out: MIC class, S. epidermidis RP62A
Procedure: as §1

[4] = tested on: S. pneumoniae D39; experiment: as above; format: cell-based; conditions: for MIC: Streptococcus pneumoniae, D39, read-out: MIC class, S. pneumoniae D39
Procedure: as §1

[5] = tested on: E. col ATCC 25922 LepB(P84L); experiment: as above; format: cell-based, E. coli; conditions: for MIC: Escherichia coli, ATCC25922, read-out: MIC class, E. col ATCC 25922 LepB(P84L)
Procedure: as §1

[6] = target: T1, E. coli SPase (Escherichia coli, UniProt P00803); experiment: Enzymatic fluorogenic substrate cleavage assay for IC50; format: biochemical
T1 construct: Full length His-tagged E. coli SPase proteins were expressed in E. coli BL21(DE3); His-tag; made in house; host or cells: E. coli BL21(DE3)
Procedure: (§2) Full length His-tagged E. coli SPase proteins were expressed in E. coli BL21(DE3) containing the plasmid pET23-lepB, P. A. Smith et al. Chem Biol 2010, 1223-1231. Briefly, saturated overnight cultures grown in 20 ml of Luria-Bertani medium supplemented with ampicillin were subcultures into 1.5 L of Luria-Bertani, and shaken at 37° C. until an optical density at 600 nm of 0.4-0.5 was achieved. Protein expression was induced with Isopropyl β-D-1-thiogalactopyranoside (ITPG) at a final concentration of […], and purified using nickel affinity chromatography. Full length His-tagged S. aureus SPase protein was expressed similarly from E. coli BL21(DE3) containing the plasmid pCDF1-SaSpsB or pCDF1-SaSpsB(P29S) and purified similarly to the E. coli protein with the following exceptions. SPase protein was solubilized using 300 mM NaCl, 20 mM Tris pH 8.06, 5 mM Imidazole, 10% glycerol, 1% Triton X-100, prior to purification in Ni-NTA Superflow resin and resin bound protein was washed in a similar buffer containing 1% Elugent in place of Triton X-100 prior to protein eluted in wash buffer supplemented with 300 mM imidazole. Protein purify was judged to exceed 95% by visual inspection of SDS-PAGE followed by Comassie staining. All protein concentrations were determined by BCA assay.
(§3) In addition to the equilibrium binding assays, compound activity is also characterized by measuring inhibition of E. coli and S. aureus substrate cleavage reactions using fluorogenic peptides developed at RQx Pharmaceuticals. Briefly, two fluorogenic peptide substrates (decanoyl-LSSPA Y^NO2 A ? ADK^abzPD (SEQ ID NO: 1) and decanyol-LTPTAY^NO2 A ? ASKK^abzDD (SEQ ID NO: 2)) have been synthesized, where abz is the fluorescence donor 2-aminobenzamide, YNO2 is the fluorescence acceptor 3-nitrotyrosine, and the cleavage site is indicated with an arrow. These substrates are processed with a second order rate constant (Kcat/KM) of 10^5 M^−1s^−1 for E. coli and S. aureus SPase enzymes, and cleavage results in a greater than 10-fold increase in fluorescence signal (excitation at 314 nm, emission at 416 nm) as measured using a SpectraMax M2 fluorescence microplate reader. Two-folder serial dilutions of compound are prepared in cleavage reaction buffer consisting of: 50 mM Tris-HCl pH 8.0, 100 mM NaCl, 10% glycerol, 1 mM EDTA, detergent (1% NP-40 or 0.1% Elugent™ for E. coli LepB or S. aureus SpsB respectively) and either 2.5 nM of E. coli SPase enzyme or 10 nM of S. aureus SPase enzyme. 40 μl aliquots of the compound dilution series in the protein/buffer solution is transferred to black 384-well polypropylene plates, and 10 μl of fluorogenic peptide at a concentration of 100 μM is added to initiate the reaction. The increase in fluorescence, corresponding to substrate cleavage, is monitored continuously at room temperature for 30 minutes and initial reaction rates are calculated based in the linear increase in fluorescence from the initial 30 minutes of the reaction. Reaction rates are plotted as a function of compound concentration, and IC50 values are determined nonlinear regression analysis (SoftMax® Pro v5.4) of the sigmoidal dose-response curve.

[7] = target: T2, S. aureus SPase (Staphylococcus aureus, UniProt P0A070); experiment: as above; format: biochemical
T2 construct: Full length His-tagged S. aureus SPase protein was expressed similarly; His-tag; made in house; host or cells: E. coli BL21(DE3)
Procedure: as §2, §3

SMILES | MIC [1] [µg/mL] | MIC [2] [µg/mL] | MIC [3] [µg/mL] | MIC [4] [µg/mL] | MIC [5] [µg/mL] | IC50 [6] [nM] | IC50 [7] [nM] | MIC class, E. coli ATCC 25922 ([1]; E. coli ATCC 25922) | MIC class, S. aureus NCTC-8325 SpsB(P295) ([2]; S. aureus NCTC-8325 SpsB(P295)) | MIC class, S. epidermidis RP62A ([3]; S. epidermidis RP62A) | MIC class, S. pneumoniae D39 ([4]; S. pneumoniae D39) | MIC class, E. col ATCC 25922 LepB(P84L) ([5]; E. col ATCC 25922 LepB(P84L)) | IC50 ([6]; fluorogenic peptide cleavage, read-out: IC50 class E. coli SPase) [nM] | IC50 ([7]; fluorogenic peptide cleavage, read-out: IC50 class S. aureus SPase) [nM]
CCCCCCCCCCCCCCCC(=O)N(C)[C@H](CO)C(=O)N[C@H](Cc1ccccc1)C(=O)NCC(=O)N(C)[C@@H]1C(=O)N[C@@H](C)C(=O)N[C@H](C(=O)O)Cc2ccc(O)c(c2)-c2cc1ccc2O [Compound 39] | > 64 | > 64 | 16 to 64 (≈ 16.7 to 66.9 µM) | 16 to 64 (≈ 16.7 to 66.9 µM) | < 8 | < 1000 | < 1000 | – | – | – | – | – | – | –
CCCCCCCCCCCCCCCC(=O)N(C)[C@H](CO)C(=O)N[C@H](CCc1ccccc1)C(=O)NCC(=O)N(C)[C@@H]1C(=O)N[C@@H](C)C(=O)N[C@H](C(=O)O)Cc2ccc(O)c(c2)-c2cc1ccc2O [Compound 41] | > 64 | > 64 | < 8 | > 64 | > 64 | < 1000 | < 1000 | – | – | – | – | – | – | –
CCCCCCCCCCCCCCCC(=O)N(C)[C@H](CN)C(=O)N[C@H](C)C(=O)NCC(=O)N(C)[C@@H]1C(=O)N[C@@H](C)C(=O)N[C@H](C(=O)O)Cc2ccc(O)c(c2)-c2cc1ccc2O [Compound 52] | – | – | – | – | – | – | – | a (MIC >64 μg/ml) | b (MIC 16-64 μg/ml) | b (MIC 16-64 μg/ml) | b (MIC 16-64 μg/ml) | a (MIC >64 μg/ml) | 1000 to 10000 | < 1000
CCCCCCCCCCCCCCCC(=O)N[C@H](CCN)C(=O)N[C@H](C)C(=O)NCC(=O)N(C)[C@@H]1C(=O)N[C@@H](C)C(=O)N[C@H](C(=O)O)Cc2ccc(O)c(c2)-c2cc1ccc2O [Compound 53] | > 64 | > 64 | 16 to 64 (≈ 18.2 to 72.7 µM) | 16 to 64 (≈ 18.2 to 72.7 µM) | > 64 | 1000 to 10000 | < 1000 | – | – | – | – | – | – | –
CCCCCCCCCCCCCCCC(=O)N(C)[C@H](CO)C(=O)N[C@H](C)C(=O)NCC(=O)N(C)[C@@H]1C(=O)N[C@@H](C)C(=O)N[C@H](C(=O)NCCO)Cc2ccc(O)c(c2)-c2cc1ccc2O [Compound 54] | > 64 | 16 to 64 (≈ 17.3 to 69.3 µM) | < 8 | < 8 | < 8 | < 1000 | 1000 to 10000 | – | – | – | – | – | – | –
CCCCCCCCCCCCCCCC(=O)N(C)[C@H](CO)C(=O)N[C@H](C)C(=O)NCC(=O)N(C)[C@@H]1C(=O)N[C@@H](C)C(=O)N[C@H](C(=O)OCCN)Cc2ccc(O)c(c2)-c2cc1ccc2O [Compound 55] | > 64 | > 64 | < 8 | < 8 | 16 to 64 (≈ 17.3 to 69.3 µM) | 1000 to 10000 | 1000 to 10000 | – | – | – | – | – | – | –
